Laboratory results reported in ChEMBL document CHEMBL4184331 (J Med Chem, 2018).
The source made the active and inactive calls. No cut-off for these calls is given here.

Tests used:
[1] = target: T1, Glucocorticoid receptor (Homo sapiens) (UniProt P04150); assay: Displacement of [3H]dexamethasone from human recombinant glucocorticoid receptor expressed in insect cells at 1000 nM after 24 hrs by scintillation proximity assay relative to control
T1 sequence (whole entry): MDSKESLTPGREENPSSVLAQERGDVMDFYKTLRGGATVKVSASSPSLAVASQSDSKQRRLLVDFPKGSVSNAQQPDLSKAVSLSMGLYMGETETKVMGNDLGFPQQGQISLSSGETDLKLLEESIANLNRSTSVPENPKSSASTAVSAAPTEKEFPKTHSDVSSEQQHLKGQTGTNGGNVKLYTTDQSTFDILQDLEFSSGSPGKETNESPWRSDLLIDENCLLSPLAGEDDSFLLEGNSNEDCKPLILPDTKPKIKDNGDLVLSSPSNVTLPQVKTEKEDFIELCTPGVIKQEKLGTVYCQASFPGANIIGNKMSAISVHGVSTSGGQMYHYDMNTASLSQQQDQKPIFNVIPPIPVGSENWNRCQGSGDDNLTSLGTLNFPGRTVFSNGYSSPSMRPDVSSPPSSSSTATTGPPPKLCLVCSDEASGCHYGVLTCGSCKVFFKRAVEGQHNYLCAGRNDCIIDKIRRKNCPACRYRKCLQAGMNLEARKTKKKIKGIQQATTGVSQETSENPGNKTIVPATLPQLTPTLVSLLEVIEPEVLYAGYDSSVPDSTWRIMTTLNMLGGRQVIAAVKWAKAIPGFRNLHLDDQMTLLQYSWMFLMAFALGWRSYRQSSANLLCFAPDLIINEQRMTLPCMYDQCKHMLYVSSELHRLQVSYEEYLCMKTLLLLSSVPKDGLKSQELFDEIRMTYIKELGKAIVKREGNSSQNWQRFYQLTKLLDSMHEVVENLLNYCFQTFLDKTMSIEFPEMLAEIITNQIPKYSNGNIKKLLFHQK

Rattus norvegicus [2] = assay: Antiinflammatory activity in it dosed LPS-induced Sprague-Dawley rat neutrophilic lung inflammation model assessed as inhibition of neutrophilic infiltration in bronchoalveolar lavage preincubated for 1 hr followed by LPS challenge measured after 4 hrs; type: functional; conditions: read-out: ID50 (the source's name)
Rattus norvegicus [3] = assay: Antiinflammatory activity in LPS-induced Sprague-Dawley rat neutrophilic lung inflammation model assessed as inhibition of neutrophilic infiltration in bronchoalveolar lavage at 1 mg/kg, it preincubated for 1 hr followed by LPS challenge measured after 4 hrs relative to control; type: functional
Rattus norvegicus [4] = species on record: Rattus norvegicus; assay: Antiinflammatory activity in LPS-induced Sprague-Dawley rat neutrophilic lung inflammation model assessed as inhibition of neutrophilic infiltration in bronchoalveolar lavage at ID80, it preincubated for 24 hrs followed by LPS challenge measured after 4 hrs relative to control; type: functional
RAW264.7 = assay: cells; conditions: Mus musculus
Description: Antiinflammatory activity in mouse RAW264.7 cells assessed as inhibition of LPS-induced nitric oxide release preincubated for 15 mins followed by LPS challenge measured after 18 hrs by Griess assay

[5] = Cmax in Sprague-Dawley rat plasma at 1 umol/kg, it by HPLC-MS/MS method; type: ADME, cell-free; parameters: dose 1 umol/kg; conditions: inhaled or intranasal
[6] = AUClast in Sprague-Dawley rat plasma at 1 umol/kg, it by HPLC-MS/MS method; type: ADME, cell-free; conditions: inhaled or intranasal
Rattus norvegicus [7] = assay: Antiinflammatory activity in LPS-induced Sprague-Dawley rat neutrophilic lung inflammation model assessed as inhibition of neutrophilic infiltration in bronchoalveolar lavage at 3 mg/kg, it preincubated for 1 hr followed by LPS challenge measured after 4 hrs relative to control; type: functional
Rattus norvegicus [8] = assay: Antiinflammatory activity in LPS-induced Sprague-Dawley rat neutrophilic lung inflammation model assessed as inhibition of neutrophilic infiltration in bronchoalveolar lavage at 0.3 mg/kg, it preincubated for 1 hr followed by LPS challenge measured after 4 hrs relative to control; type: functional
Rattus norvegicus [9] = assay: Antiinflammatory activity in LPS-induced Sprague-Dawley rat neutrophilic lung inflammation model assessed as inhibition of neutrophilic infiltration in bronchoalveolar lavage at 0.1 mg/kg, it preincubated for 1 hr followed by LPS challenge measured after 4 hrs relative to control; type: functional
[10] = MRTlast in Sprague-Dawley rat lung at 1 umol/kg, it by HPLC-MS/MS method; type: ADME, tissue-based; conditions: inhaled or intranasal
[11] = Cmax in Sprague-Dawley rat lung at 1 umol/kg, it by HPLC-MS/MS method; type: ADME, tissue-based; parameters: dose 1 umol/kg; conditions: in vivo, inhaled_or_intranasal
[12] = AUClast in Sprague-Dawley rat lung at 1 umol/kg, it by HPLC-MS/MS method; type: ADME, tissue-based; conditions: in vivo, inhaled_or_intranasal
[13] = MRTlast in Sprague-Dawley rat plasma at 1 umol/kg, it by HPLC-MS/MS method; type: ADME, cell-free; conditions: inhaled or intranasal
Glucocorticoid receptor [14] = target: T2, Glucocorticoid receptor (Homo sapiens, UniProt P04150)
T2 sequence (P04150 whole entry): T1 sequence (whole entry)
Description: Induction of nuclear translocation of human recombinant ProLabel-tagged glucocorticoid receptor expressed in CHO-K1 cells after 3 hrs by luminescence method

[15] = target: T3, Mineralocorticoid receptor (Homo sapiens, UniProt P08235)
T3 sequence (P08235 whole entry): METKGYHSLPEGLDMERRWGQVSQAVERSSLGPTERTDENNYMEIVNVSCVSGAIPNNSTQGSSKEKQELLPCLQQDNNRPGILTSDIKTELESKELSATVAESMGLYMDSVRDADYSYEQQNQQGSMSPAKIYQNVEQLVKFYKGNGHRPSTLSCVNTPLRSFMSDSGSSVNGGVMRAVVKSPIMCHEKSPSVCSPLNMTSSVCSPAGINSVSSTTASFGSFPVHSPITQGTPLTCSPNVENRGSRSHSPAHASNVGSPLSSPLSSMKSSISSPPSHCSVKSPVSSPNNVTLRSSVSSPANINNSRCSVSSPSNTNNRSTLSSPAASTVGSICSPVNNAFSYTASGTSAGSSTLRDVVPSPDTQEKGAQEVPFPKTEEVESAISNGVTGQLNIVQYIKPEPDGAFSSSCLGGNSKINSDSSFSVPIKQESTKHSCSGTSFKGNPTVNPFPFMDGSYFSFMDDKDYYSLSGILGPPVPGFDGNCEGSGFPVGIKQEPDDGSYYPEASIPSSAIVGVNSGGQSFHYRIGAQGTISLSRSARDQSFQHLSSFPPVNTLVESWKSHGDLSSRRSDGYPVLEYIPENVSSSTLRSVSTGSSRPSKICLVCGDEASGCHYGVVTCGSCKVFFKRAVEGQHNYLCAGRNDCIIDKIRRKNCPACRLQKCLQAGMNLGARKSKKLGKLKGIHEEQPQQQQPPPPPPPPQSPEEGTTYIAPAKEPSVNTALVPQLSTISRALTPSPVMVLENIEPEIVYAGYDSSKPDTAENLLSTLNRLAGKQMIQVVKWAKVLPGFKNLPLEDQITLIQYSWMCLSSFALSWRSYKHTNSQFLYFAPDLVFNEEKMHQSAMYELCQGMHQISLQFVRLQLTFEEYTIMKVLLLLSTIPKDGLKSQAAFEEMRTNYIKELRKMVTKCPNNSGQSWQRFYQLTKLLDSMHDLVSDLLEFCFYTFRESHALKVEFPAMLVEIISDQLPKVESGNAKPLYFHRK
Description: Induction of nuclear translocation of human recombinant ProLabel-tagged mineralocorticoid receptor expressed in CHO-K1 cells after 3 hrs by luminescence method

Glucocorticoid receptor [16] = target: T2, Glucocorticoid receptor; assay: biochemical
Description: Displacement of [3H]dexamethasone from human recombinant glucocorticoid receptor expressed in insect cells after 24 hrs by scintillation proximity assay

Rattus norvegicus [17] = assay: Antiinflammatory activity in LPS-induced Sprague-Dawley rat neutrophilic lung inflammation model assessed as inhibition of neutrophilic infiltration in bronchoalveolar lavage at 0.03 mg/kg, it preincubated for 1 hr followed by LPS challenge measured after 4 hrs relative to control; type: functional

Description for physchem: Dissociation constant, pKa of the compound

| Structure (SMILES) | inhibition [1] [%] | pKa (physchem) | ED50 (Rattus norvegicus [2]) [µmol/kg] | inhibition in vivo at 1 mg/kg (Rattus norvegicus [3]) [%] | inhibition (Rattus norvegicus [4]) | IC50 (RAW264.7) [nM] | Cmax [5] [µM] | AUC(0-t) [6] [nM·h] | inhibition in vivo at 3 mg/kg (Rattus norvegicus [7]) [%] | inhibition in vivo at 0.3 mg/kg (Rattus norvegicus [8]) [%] | inhibition in vivo at 0.1 mg/kg (Rattus norvegicus [9]) [%] | MRT last [10] [h] | Cmax [11] [nmol/g] | AUClast [12] [nmol·h/g] | MRT last [13] [h] | inhibition (INH) (Rattus norvegicus [4]) [%] | EC50 (Glucocorticoid receptor [14]) [nM] | EC50 [15] [nM] | Ki (Glucocorticoid receptor [16]) [nM] | inhibition in vivo at 0.03 mg/kg (Rattus norvegicus [17]) [%] |
| --- | --- | --- | --- | --- | --- | --- | --- | --- | --- | --- | --- | --- | --- | --- | --- | --- | --- | --- | --- | --- |
| C[C@]12C=CC(=O)C=C1[C@@H](F)C[C@H]1[C@@H]3C[C@H]4CNC[C@@]4(C(=O)CO)[C@@]3(C)C[C@H](O)[C@@]12F | 40 | 8.82 | – | – | – | – | – | – | – | – | – | – | – | – | – | – | – | – | – | – |
| CCCC1O[C@@H]2C[C@H]3[C@@H]4CCC5=CC(=O)C=C[C@]5(C)[C@H]4[C@@H](O)C[C@]3(C)[C@]2(C(=O)CO)O1 (stereo not given in full) [BUDESONIDE] | – | – | 0.34 | 73 | inactive | 0.82 | 0.127 | 11600 | 84 | 45 | 29 | 0.71 | 18.67 | 110.03 | 1.2 | – | – | – | – | – |
| C[C@]12C=CC(=O)C=C1[C@@H](F)C[C@H]1[C@@H]3C[C@H]4CN(Cc5cccc(Cl)c5)C[C@@]4(C(=O)CO)[C@@]3(C)C[C@H](O)[C@@]12F | – | 6.64 | 0.097 | 92 | – | 0.08 | 0.11 | 118 | – | 64 | 56 | 16.7 | 64.26 | 871.2 | 1.4 | >80 | 1.8 | 2.5 | 0.76 | 47 |
| C[C@@H]1C[C@H]2[C@@H]3C[C@H](F)C4=CC(=O)C=C[C@]4(C)[C@@]3(F)[C@@H](O)C[C@]2(C)[C@@]1(OC(=O)c1ccco1)C(=O)SCF [FLUTICASONE FUROATE] | – | – | – | – | – | 0.1 | 0.045 | 50 | – | – | – | 9.5 | 77.1 | 1049 | 1.4 | >80 | – | – | – | – |
